What all share (type): cell-based
Data set [1] concerns caspases 3 and 7 in HCT-116 cells. Kind of data set: caspases 3 and 7 activity (Apo-ONE test). The settings on record: HCT-116, 24 hours, 5 nM to 75 nM. The method, then:
The activity of caspases 3 and 7, marker enzymes of apoptosis, was measured using the Apo-ONE (Promega) test after treating HCT-116 cells with compound (1) at concentrations varying from 5 nM to 75 nM.

Another data set deals with normal human cells. Kind of data set: specificity of action: normal human cells versus cancer cells. The settings on record: in vitro, concentrations encompassing the IC50. The text has this:
(§1) In order to determine the specificity of action of compound (1) on cancer cells, we evaluated the effect thereof with respect to normal human HUVEC, NHDF and HFDPC cells and the HCT-116, U87 and K652 cancer cell annotations.
The IC50 values are thus up to 300 times higher for normal cells compared to those obtained for cancer cells.

The subject of data set [2] is HCT-116 cells. Briefly: cell cycle flow cytometry analysis. The settings on record: HCT-116, 24 hours, 30 and 50 nM. The method, then: This effect is significant after 24 hours of exposure of the cells to compound (1) used at the 30 and 50 nM concentrations (FIG. 4).
The test system of the next data set is U87 cells (glioblastoma). Kind of data set: cell growth test (CellTiter-Blue Cell Viability Assay). The settings on record: Homo sapiens, U-87 MG, 72 hours of treatment, read-out: IC50 (concentration of compound inducing a 50% reduction of cell growth). The protocol: (§2) The biological activity of compound (1) was studied in vitro on 3 different cancer cell lines: • HCT-116 (colorectal carcinoma) • U87 (glioblastoma) • K562 (myeloid leukaemia) and on 3 normal non-cancerous cell types: • HUVEC (human umbilical vascular endothelial cells) • NHDF (human dermal fibroblasts) • HFDPC (human hair follicle dermal papilla cells).
(§3) The cells selected for this study were incubated at 37° in the presence of compound (1) added in the culture medium at different concentrations and at different times.
(§4) The effect of compound (1) on HCT-116, U87 and K562 cell growth was evaluated using a cell growth test (CellTiter-Blue™ m Cell Viability Assay, Promega). The growth curves and the IC50 values (concentration of compound inducing a 50% reduction of cell growth) determined after 72 hours of cell treatment with compound (1) are presented in FIG. 1. They are 30 nm for HCT-116 cells, 45 nM for U87 cells and 70 nM for K562.
Background: Resazurin is reduced to fluorescent resorufin, in cell work by metabolically active cells.

The subject of data set [3] is HCT-116 cells (colorectal carcinoma). The description is as above. The settings on record: Homo sapiens, 72 hours of treatment, read-out: IC50 (concentration of compound inducing a 50% reduction of cell growth). The protocol:
as §2, §3, §4

Another data set relates to K562 (myeloid leukaemia). The data set is described as above. The settings on record: Homo sapiens; K562, 72 hours of treatment; read-out: IC50 (concentration of compound inducing a 50% reduction of cell growth). The protocol:
as §2, §3, §4

Data set [4] has as its system HCT-116 cells. Kind of data set: counting live cells after trypan blue staining. The method, then:
The effect of compound (1) on cell growth was described in more detail on the HCT-116 cell line. This study was conducted as a function of the concentration and exposure time of the cells to the molecule under test (24 hrs, 48 hrs and 72 hrs) by counting the number of live cells after excluding dead cells by means of trypan blue staining.
FIG. 2 represents the effect of compound (I) on the number and viability of HCT-116 cells as a function of the concentration thereof and the treatment time.

For data set [5], the system named is proteins p21 and p27 in HCT-116 cells. Briefly: Western Blot of proteins p21 and p27. The settings on record: HCT-116, 24 hours. The method, then: The gene of the protein p27 is described as being regulated by FOXO3, whereas that of the protein p21 is controlled by the p53 transcription factor, stimulated inter alia by oxidative stress. The HCT-116 cells were treated with compound (1) for 24 hours. The cell extracts were then analysed by Western Blot.
(In general: A western blot detects proteins with antibodies after separation by electrophoresis.)

Data set [6] has as its system protein LC3-II in HCT-116 cells. Kind of data set: autophagy: Western Blot of LC3-II. The settings on record: HCT-116, 24 hours, 5 nM to 100 nm. The method, then:
In the aim of determining whether the stoppage of the cell cycle induced by compound (1) induces an autophagic reaction, the HCT-116 cells were treated with compound (1) at different doses for 24 hours. The cell extracts then underwent Western Blot analysis in order to view the expression of the protein LC3-II. Indeed, the protein LC3 exists in the cell either in cytosolic form (LC3-I) or associated with phagosomes (LC3-II). The latter is the marker of the autophagic reaction.

Data set [7] deals with Akt protein serine 473 phosphorylation, FOXO3, peroxiredoxin 1 in HCT-116 cells. Kind of data set: survival pathway PI3 kinase-Akt-Foxo Western Blot. The settings on record: HCT-116, 24 hours. The protocol: In view of the stoppage of the cell cycle in the G0/G1 phase associated with an autophagic response in the absence of apoptosis following treatment with compound (1), we studied the action of this compound on the survival pathway involving PI3 kinase-Akt-Foxo. This signalling pathway is very frequently found to be disrupted (by stimulation) in a large number of cancer cells and contributes to the survival thereof.
Indeed, HCT-116 cells were exposed for 24 hours to the action of compound (1) at concentrations varying from 5 nM to 100 nm.

The test system of data set [8] is HCT-116 cells. Kind of data set: mitochondrial transmembrane potential (JC-1 probe, flow cytometry). The settings on record: HCT-116, 24 hours, 25 nM to 100 nM. The method, then:
The study of the mitochondrial transmembrane potential, Δψm, was conducted by flow cytometry, using the JC-1 probe (MitoProbe™ JC-1 assay, Molecular Probes). JC-1 is a lipophilic […] compound which selectively penetrates the mitochondria, the colour whereof changes from green to red when the transmembrane potential increases.
A general note: In flow cytometry, cells or beads pass a laser one at a time.

Data set [9] deals with intracellular H2O2 in HCT-116 cells. Kind of data set: intracellular H2O2 concentration (DCF-DA, flow cytometry). An excerpt: The protein peroxiredoxin is an enzyme having a peroxidase activity, controlling the intracellular hydrogen peroxide (H2O2) concentration. Therefore, we evaluated the effect of compound (1) on the intracellular H2O2 concentration, using DCF-DA (2′,7′-dichlorofluorescein diacetate, Sigma) as a marker of intracellular H2O2. Hydrogen peroxide is an intracellular second messenger. It regulates, according to the concentration thereof, numerous functions such as proliferation or apoptosis. A reduction of the concentration thereof is associated with a decrease in proliferation.

Data set [10] deals with HUVEC cells (human umbilical vascular endothelial cells). Kind of data set: cell growth, normal cells. The settings on record: 72 hours of treatment. The method, then:
as §2, §3, §4, §1

The subject of data set [11] is NHDF cells (human dermal fibroblasts). Kind of data set: cell growth, normal cells. The settings on record: 72 hours of treatment. The protocol:
as §2, §3, §4, §1

For data set [12], the system named is HFDPC (human hair follicle dermal papilla cells). Briefly: cell growth, normal cells. The settings on record: 72 hours of treatment. The method, then:
as §2, §3, §4, §1

This is an account of results in patent publication US9546159B2, “N-substituted 3,4-bis (catechol) pyrrole compounds, and the preparation and use thereof in the treatment of cancer” (Centre National De La Recherche Scientifique (CNRS), priority 2012, dated 2017).

Structures are written as SMILES.

As to `O=[N+]([O-])c1cc(-c2cn(CCCN3CCCCCCCCCCCC3)cc2-c2cc(O)c(O)c([N+](=O)[O-])c2)cc(O)c1O` [compound (1), 5,5′-(1-(3-(Azacyclotridecan-1-yl)propyl)-1H-pyrrole-3,4-diyl)bis(3-nitrobenzene-1,2-diol)], the “activity of caspases 3 and 7” value in data set [1] is given as “lack of variations in the activity of these enzymes”. Besides, the “cytotoxicity with respect to normal human cells” value in the data set with normal human cells was “does not exhibit any cytotoxicity”. Moreover, in the data set with HCT-116 cells [2], the “effect on the cell cycle” value is recorded as “blocks cell division in the G0/G1 phase”. Moreover, the IC50 was 45 nM in the data set with U87 cells (glioblastoma); 30 nM in data set [3]; 70 nM with K562 (myeloid leukaemia); 2000 nM in data set [10]; 5000 nM in data set [11]; 10000 nM in data set [12]. The “nature of the action (cytostatic / cytotoxic)” value with HCT-116 cells [4] (HCT-116) is “cytostatic and not cytotoxic”. Besides, the “reduction of the number of cells” value with HCT-116 cells [4] (HCT-116, 25 nM, 24 hours of treatment) is 40%. Further, the “cell viability (trypan blue)” value with HCT-116 cells [4] (HCT-116, 24, 48 and 72 hrs) is reported as “lack of modification of cell viability”. The “inhibition of the number of cells” value in the data set with HCT-116 cells [4] (HCT-116, from 48 hours, concentrations greater than the IC50) is listed as “up to 80%”. For the same compound, the “expression of the protein p21” value in data set [5] is on record as “no significant effect”. Further, the “expression of protein p27” value in data set [5] (25 and 50 nM) is “increase in the expression of protein p27”. In data set [6], the “expression of LC3-II” value is recorded as “increase in the expression of LC3-II”. Further, in data set [7] (5 nM to 100 nm), the “expression of the protein FOXO3” value is “stimulates the expression of the protein FOXO3”. Further, the “expression of the protein peroxiredoxin 1” value in data set [7] (5 nM to 100 nm) is given as “stimulates the expression of the protein peroxiredoxin 1”. In addition, the “Akt protein serine 473 phosphorylation” value in data set [7] (from the 25 nm concentration) is given as “totally suppresses”. Besides, the “mitochondrial transmembrane potential Δψm” value in the data set on HCT-116 cells [8] was “does not modify Δψm significantly”. In addition, the “dose dependence of the effect on intracellular H2O2” value in data set [9] (HCT-116) is given as “dose dependent”. Further, the “decrease of the intracellular H2O2 concentration” value in data set [9] (HCT-116, 50 nM, 18 hours of treatment) is on record as “approximately 50%”.
